PMC11251168, “Effect of ABCB1 most frequent polymorphisms on the accumulation of bictegravir in recombinant HEK293 cell lines” (Scientific Reports, 2024)
Where a name gives a salt, the structure may show the parent alone.

Tests used:
[1] = tested on: ABCB1 (HEKWT, HEK1199A, HEKCGT, HEKTTT, HEKcontrol); assay: Model functionality assay: Rhodamine123 intracellular fluorescence with or without zosuquidar; format: cell-based, human; conditions: Rh123 5 μM, 90 min
Protocol: 0.05 × 10^6 cells were seeded on poly-l-lysine coated 96-well plates and incubated overnight. The next day, Rh123 and zosuquidar dilutions were prepared from a stock solution. Cells were incubated for 90 min at 37 °C in the presence of Rh123 at 5 μM. The effect of ABCB1 inhibition was assessed by preincubation of the cells for 15 min with zosuquidar at a concentration of 0.2 μM. After incubation with Rh123, the supernatants were discarded. The cells were washed two times with ice-cold PBS. Sterile water was then added and detachment and lysis were performed through scratching of the well’s surface followed by sonication. Finally, fluorescence of Rh123 was analyzed by an iD3 Spectramax (Molecular Devices) fluorometer (c.1199G > A model validation) or a M3 Spectramax (Molecular Devices) fluorometer (haplotype model validation); excitation wavelength was set at 485 nm and emission at 530 nm. The solution was then used for protein quantification for results normalization.
Statistical analyses were carried out using GraphPad Prism version 9.5.1 for Mac OS X (GraphPad Software). For the functional assays, protein normalized intracellular fluorescences were compared after log-transformation using the natural logarithm (Ln), when required. Comparison was performed using a two-way ANOVA (α = 0.05) followed by a post-hoc analysis testing the effect of the inhibitor, with Bonferroni correction for multiple testing. For the intracellular bictegravir accumulation experiments, triplicates were performed during each experiment, and each experiment was performed thrice. For each experiment, protein normalized bictegravir intracellular concentrations were reported as fold-change of the mean of the protein normalized bictegravir intracellular concentration observed at the lowest bictegravir exposition concentration for HEKcontrol during the same experiment. Fold-change results from the three biological replicates were pooled and are shown on Figs. 3 and 4. Statistical analysis were performed on Ln transformed data that were pooled using the same principle as described here above. […]

[2] = design: method as in PMID 36701274; conditions: thought to be mainly due to passive diffusion; cited from earlier work
[3] = design: method as in PMID 32868324, PMID 32199329; conditions: cited from earlier work
[4] = biological target: T1, ABCB1 wild-type 1199G-1236C-2677G-3435C (Homo sapiens, UniProt P08183, S893A); assay: Intracellular bictegravir accumulation in HEK293 cells overexpressing wild-type ABCB1 (HEKWT); format: in vitro ADME; conditions: 2 h incubation, 0.25-5 mg/l
T1 construct: expressed in transfected cells; host or cells: HEK293 (ATCC), pcDNA3.1 plasmid, G418 selection
Description: (§1) The generation and characterization of recombinant cell lines have been described in previous work conducted by our lab[26],[42]. Briefly, human embryonic kidney (HEK293) cells were purchased from American Type Culture Collection and transfected with plasmids carrying either wild-type ABCB1 1199G-1236C-2677G-3435C (thereafter named HEKWT) or several ABCB1 variant combinations obtained using site-directed mutagenesis, 1199A-1236C-2677G-3435C (thereafter named HEK1199A), 1199G-1236C-2677G-3435T (thereafter named HEKCGT) and 1199G-1236T-2677T-3435T (thereafter named HEKTTT); or an empty vector (thereafter named HEKcontrol). […] This model has previously been extensively characterized using flow cytometry, Western blot, and fluorescence microscopy, and validated using reference substrates and inhibitors of ABCB1[26],[42]. […]
(§2) 0.7 × 10^6 cells were seeded on poly-l-lysine-coated 12-well plates and incubated overnight. […] Cell suspensions were centrifugated for 10 min at 10,500×g, 4 °C and 100 μl of the supernatant was transferred to a vial for bictegravir liquid chromatography-tandem mass spectrometry (LC–MS/MS) quantification. […] This mixed solution was used for protein quantification for results normalization.
(§3) Bictegravir intracellular concentrations were determined using an adapted version of a previously published LC–MS/MS method on a Xevo TQS-micro tandem quadrupole mass spectrometer (Waters)[46]. […]

[5] = biological target: T2, ABCB1 (wild-type, HEK1199G cells; HEKcontrol cells) (Homo sapiens, UniProt P08183, S893A); assay: Intracellular bictegravir accumulation with or without the ABCB1 inhibitor zosuquidar (Supplementary Fig. 2); format: in vitro ADME; conditions: bictegravir 2500 ng/mL, 120 min, zosuquidar 0.2 μM preincubation 15 min
T2 construct: expressed in transfected cells; host or cells: HEK293 (ATCC), pcDNA3.1 plasmid, G418 selection
Protocol: 0.7x10^6 cells were seeded on poly-l-lysine-coated 12-well plates and incubated overnight. The next day, bictegravir and zosuquidar dilutions were prepared from a stock solution. Cells were incubated for 120 minutes at 37 °C (5% CO2) in the presence of bictegravir at 2500 ng/mL. The effect of ABCB1 inhibition was assessed by preincubation of the cells for 15 minutes with zosuquidar at a concentration of 0.2 μM. Subsequently, plates were then centrifuged for 3 min at 4 °C, and maintained on ice throughout the experiment to block drug efflux. Cells were washed twice with 1 mL […]
Drug extraction was then performed as described in the Manuscript, in the Methods section describing Intracellular bictegravir accumulation experiments. Drug quantification and protein quantification were performed as described in the dedicated Methods sections.
Reported statistical analysis: ANOVA-2 with post-hoc Bonferroni correction test, performed on log- […]
(1 picture or pasted object on this page, not shown here)

[6] = design: method as in PMID 32868324, PMID 32199329; conditions: cited from earlier work; remark: listed apart in the source
[7] = biological target: T3, ABCB1 1199A-1236C-2677G-3435C (Homo sapiens, UniProt P08183, S400N/S893A); assay: Intracellular bictegravir accumulation in HEK293 cells overexpressing ABCB1 1199A variant (HEK1199A); format: in vitro ADME; conditions: 2 h incubation, 0.25-5 mg/l, Fig. 3
T3 construct: expressed in transfected cells; host or cells: HEK293 (ATCC), pcDNA3.1 plasmid, G418 selection
Description: as §1, §2, §3

ABCB1 = tested on: ABCB1; design: method as in PMID 36701274; conditions: ABCB1-overexpressing MDCK II transfected cells compared with non-transfected cells; cited from earlier work
[8] = design: method as in PMID 36701274; conditions: cited from earlier work
[9] = design: method as in PMID 36701274; conditions: cited from earlier work; remark: listed apart in the source
[10] = biological target: T4, ABCB1 1199G-1236C-2677G-3435T (Homo sapiens, UniProt P08183, S893A); assay: Intracellular bictegravir accumulation in HEK293 cells overexpressing ABCB1 CGT haplotype (HEKCGT); format: in vitro ADME; conditions: 2 h incubation, 0.25-5 mg/l; Fig. 4
T4 construct: expressed in transfected cells; host or cells: HEK293 (ATCC), pcDNA3.1 plasmid, G418 selection
Description: as §1, §2, §3

[11] = tested on: human peripheral blood mononuclear cells; design: method as in PMID 36806669; conditions: cited from earlier work
[12] = tested on: ABCB1 1199G-1236T-2677T-3435T; assay: Intracellular bictegravir accumulation in HEK293 cells overexpressing ABCB1 TTT haplotype (HEKTTT); format: in vitro ADME, human; conditions: 2 h incubation, 0.25-5 mg/l; Fig. 4
Description: (§4) The generation and characterization of recombinant cell lines have been described in previous work conducted by our lab[26],[42]. Briefly, human embryonic kidney (HEK293) cells were purchased from American Type Culture Collection and transfected with plasmids carrying either wild-type ABCB1 1199G-1236C-2677G-3435C (thereafter named HEKWT) or several ABCB1 variant combinations obtained using site-directed mutagenesis, 1199A-1236C-2677G-3435C (thereafter named HEK1199A), 1199G-1236C-2677G-3435T (thereafter named HEKCGT) and 1199G-1236T-2677T-3435T (thereafter named HEKTTT); or an empty vector (thereafter named HEKcontrol). HEKCGT was selected, in addition to HEKWT (carrying the CGC haplotype) and HEKTTT, to test the potential impact of c.3435C > T variant. HEK293 cells feature low endogenous levels of expression of ABCB1, ensuring that ABCB1 expression originates almost exclusively from the transfection process. This model has previously been extensively characterized using flow cytometry, Western blot, and fluorescence microscopy, and validated using reference substrates and inhibitors of ABCB1[26],[42]. As the same cells were used, only flow cytometry and functional tests using reference substrates and inhibitors were used to re-characterize them.
as §2
(§5) Bictegravir intracellular concentrations were determined using an adapted version of a previously published LC–MS/MS method on a Xevo TQS-micro tandem quadrupole mass spectrometer (Waters)[46]. […] The following ion transitions were monitored: 450.1 > 289.1 for bictegravir and 453.2 > 289.2 for bictegravir-15N, d2.
(§6) Total proteins were quantified in pellets using the BCA kit (Thermo Fisher Scientific) according to the manufacturer’s instructions. […]

[13] = biological target: T5, ABCB1 1199G-1236T-2677T-3435T (Homo sapiens, UniProt P08183); assay: as above; format: in vitro ADME; conditions: 2 h incubation, 0.25-5 mg/l; Fig. 4
T5 construct: expressed in transfected cells; host or cells: HEK293 (ATCC), pcDNA3.1 plasmid, G418 selection
Description: as §4, §2, §5, §6

[14] = tested on: ABCB1 c.1199G > A variant; conditions: cited from earlier work
PBMCs = assay: Preliminary clinical pharmacokinetic assessments of intracellular accumulation in PBMCs; format: in vivo
[15] = tested on: ABCB1 c.1236C > T, c.2677G > T and c.3435C > T variants; conditions: cited from earlier work
[16] = zosuquidar 0.2 μM, 15 min preincubation

T4 sequence (P08183 whole entry S893A): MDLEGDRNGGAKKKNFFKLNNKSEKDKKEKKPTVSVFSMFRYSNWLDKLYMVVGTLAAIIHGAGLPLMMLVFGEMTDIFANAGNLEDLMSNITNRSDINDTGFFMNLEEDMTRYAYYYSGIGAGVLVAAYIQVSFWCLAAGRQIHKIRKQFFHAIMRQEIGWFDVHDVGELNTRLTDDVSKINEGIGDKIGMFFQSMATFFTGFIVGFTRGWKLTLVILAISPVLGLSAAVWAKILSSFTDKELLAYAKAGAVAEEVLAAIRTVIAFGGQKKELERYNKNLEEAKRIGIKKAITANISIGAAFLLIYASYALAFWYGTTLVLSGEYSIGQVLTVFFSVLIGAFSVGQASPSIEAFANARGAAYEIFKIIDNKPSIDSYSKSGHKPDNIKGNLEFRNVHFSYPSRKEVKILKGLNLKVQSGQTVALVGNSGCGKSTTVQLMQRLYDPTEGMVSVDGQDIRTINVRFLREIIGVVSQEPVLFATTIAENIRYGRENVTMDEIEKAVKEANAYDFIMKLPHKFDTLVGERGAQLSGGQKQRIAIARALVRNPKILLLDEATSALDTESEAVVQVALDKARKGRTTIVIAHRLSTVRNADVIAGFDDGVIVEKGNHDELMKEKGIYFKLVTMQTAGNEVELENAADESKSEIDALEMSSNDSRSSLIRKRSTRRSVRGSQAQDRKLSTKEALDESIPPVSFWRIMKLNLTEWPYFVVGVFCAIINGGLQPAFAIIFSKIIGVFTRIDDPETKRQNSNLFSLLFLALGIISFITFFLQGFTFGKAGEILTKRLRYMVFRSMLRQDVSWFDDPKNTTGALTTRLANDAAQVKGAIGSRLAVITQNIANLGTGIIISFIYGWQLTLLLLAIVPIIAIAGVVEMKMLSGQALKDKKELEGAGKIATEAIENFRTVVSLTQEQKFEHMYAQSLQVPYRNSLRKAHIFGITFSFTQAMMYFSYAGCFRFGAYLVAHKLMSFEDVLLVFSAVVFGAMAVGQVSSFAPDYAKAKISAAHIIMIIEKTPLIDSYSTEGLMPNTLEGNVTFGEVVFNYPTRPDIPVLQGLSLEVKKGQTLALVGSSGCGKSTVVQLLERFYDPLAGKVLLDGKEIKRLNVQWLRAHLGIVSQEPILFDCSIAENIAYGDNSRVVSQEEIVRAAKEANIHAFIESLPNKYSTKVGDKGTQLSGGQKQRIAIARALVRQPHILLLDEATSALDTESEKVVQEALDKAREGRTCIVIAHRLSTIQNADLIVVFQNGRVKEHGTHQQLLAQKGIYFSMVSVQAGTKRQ
T1 sequence (P08183 whole entry S893A): as above
T3 sequence (P08183 whole entry S400N/S893A): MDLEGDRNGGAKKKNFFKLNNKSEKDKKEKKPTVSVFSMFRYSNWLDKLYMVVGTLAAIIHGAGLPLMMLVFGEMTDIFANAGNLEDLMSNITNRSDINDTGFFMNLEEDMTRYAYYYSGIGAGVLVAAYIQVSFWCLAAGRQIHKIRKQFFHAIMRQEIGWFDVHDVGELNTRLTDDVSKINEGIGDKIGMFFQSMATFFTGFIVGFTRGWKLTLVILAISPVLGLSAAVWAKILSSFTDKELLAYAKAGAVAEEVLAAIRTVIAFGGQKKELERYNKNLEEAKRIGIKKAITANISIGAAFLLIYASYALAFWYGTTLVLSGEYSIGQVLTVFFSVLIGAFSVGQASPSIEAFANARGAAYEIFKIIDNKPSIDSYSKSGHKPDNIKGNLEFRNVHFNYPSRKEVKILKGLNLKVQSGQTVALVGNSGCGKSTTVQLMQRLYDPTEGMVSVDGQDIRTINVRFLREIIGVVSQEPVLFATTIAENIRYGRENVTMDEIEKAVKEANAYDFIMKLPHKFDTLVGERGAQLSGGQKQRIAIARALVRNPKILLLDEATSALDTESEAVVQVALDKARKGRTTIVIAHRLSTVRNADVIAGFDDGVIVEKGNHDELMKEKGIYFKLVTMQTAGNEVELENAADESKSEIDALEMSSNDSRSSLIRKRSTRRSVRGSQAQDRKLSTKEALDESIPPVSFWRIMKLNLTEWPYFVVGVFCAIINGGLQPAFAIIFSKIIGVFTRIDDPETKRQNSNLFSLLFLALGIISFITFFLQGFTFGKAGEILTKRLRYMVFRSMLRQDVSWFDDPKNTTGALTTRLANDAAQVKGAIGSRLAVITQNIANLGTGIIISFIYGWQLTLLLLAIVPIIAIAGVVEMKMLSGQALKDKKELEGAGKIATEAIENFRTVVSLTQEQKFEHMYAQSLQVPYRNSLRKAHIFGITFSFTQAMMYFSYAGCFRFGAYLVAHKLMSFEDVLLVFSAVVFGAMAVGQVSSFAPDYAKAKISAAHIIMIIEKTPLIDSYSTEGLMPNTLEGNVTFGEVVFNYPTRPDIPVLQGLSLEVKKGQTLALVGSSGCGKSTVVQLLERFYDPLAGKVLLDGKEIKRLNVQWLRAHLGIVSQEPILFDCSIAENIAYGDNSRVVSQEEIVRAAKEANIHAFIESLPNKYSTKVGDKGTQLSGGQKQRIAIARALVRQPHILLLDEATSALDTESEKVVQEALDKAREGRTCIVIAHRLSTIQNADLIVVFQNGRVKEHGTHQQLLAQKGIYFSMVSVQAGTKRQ
T2 sequence (P08183 whole entry S893A): as the sequence (P08183 whole entry S893A) above

Compound: COC(=O)c1ccccc1-c1c2ccc(=N)cc-2oc2cc(N)ccc12 [Rh123, Rhodamine123]
- Rh123 intracellular fluorescence in cell lines overexpressing ABCB1 compared to HEKcontrol ([1]; HEKWT, HEK1199A, HEKCGT and HEKTTT, without zosuquidar): significantly lower

Compound: O=C(NCc1c(F)cc(F)cc1F)c1cn2c(c(O)c1=O)C(=O)N1[C@H]3CC[C@H](C3)O[C@@H]1C2 [bictegravir]
- oral bioavailability [2]: high
- plasma protein binding [3]: high
- bictegravir intracellular accumulation, HEKWT versus HEKcontrol ([4]; c.1199G > A experiments, protein-normalized, fold-change, Fig. 3): significantly lower
- bictegravir intracellular accumulation, HEKWT versus HEKcontrol ([4]; haplotype experiments, Fig. 4): significantly lower
- change of bictegravir intracellular accumulation in the presence of zosuquidar, HEK1199G cells [5]: significant increase
- ratios of cerebrospinal fluid over plasma bictegravir concentrations [6]: low
- difference of bictegravir intracellular accumulation between HEKWT and HEK1199A [7]: did not show any significant difference
- bictegravir intracellular accumulation, HEK1199A versus HEKcontrol ([7]; protein-normalized, fold-change): significantly lower
- transport by ABCB1 (ABCB1): active transport
- biopharmaceutical classification system class [8]: class II
- solubility (biopharmaceutical classification system) [8]: low solubility
- permeability (biopharmaceutical classification system) [9]: high permeability
- transepithelial permeability [9]: High
- bictegravir intracellular accumulation, HEKCGT versus HEKcontrol [10]: significantly lower
- difference of bictegravir intracellular accumulation, HEKWT vs HEKCGT [10]: did not show any significant difference
- accumulation into human peripheral blood mononuclear cells [11]: limited
- difference of bictegravir intracellular accumulation, HEKCGT vs HEKTTT [12]: did not show any significant difference
- difference of bictegravir intracellular accumulation, HEKWT vs HEKTTT [12]: did not show any significant difference
- bictegravir intracellular accumulation, HEKTTT versus HEKcontrol [13]: significantly lower

Compound: Cc1nc(Nc2ncc(C(=O)Nc3c(C)cccc3Cl)s2)cc(N2CCN(CCO)CC2)n1 [dasatinib]
- effect of c.1199G > A variant on transport [14]: affect the transport

Compound: C[C@@H]1CCO[C@H]2Cn3cc(C(=O)NCc4ccc(F)cc4F)c(=O)c(O)c3C(=O)N12 [dolutegravir]
- intracellular accumulation in PBMCs compared to bictegravir (PBMCs): higher

Compound: Cc1ccc(NC(=O)c2ccc(CN3CCN(C)CC3)cc2)cc1Nc1nccc(-c2cccnc2)n1 [imatinib]
- impact of c.1236C > T, c.2677G > T and c.3435C > T variants on anti-proliferative activity [15]: more pronounced effect

Compound: Cc1cn(-c2cc(NC(=O)c3ccc(C)c(Nc4nccc(-c5cccnc5)n4)c3)cc(C(F)(F)F)c2)cn1 [nilotinib]
- effect of c.1199G > A variant on transport [14]: affect the transport

Compound: C=CC[C@@H]1/C=C(\C)C[C@H](C)C[C@H](OC)[C@H]2O[C@@](O)(C(=O)C(=O)N3CCCC[C@H]3C(=O)O[C@H](/C(C)=C/[C@@H]3CC[C@@H](O)[C@H](OC)C3)[C@H](C)[C@@H](O)CC1=O)[C@H](C)C[C@@H]2OC [tacrolimus]
- impact of c.1199G > A variant on intracellular accumulation ([14]; same cellular model): significant impact

Compound: O[C@@H](COc1cccc2ncccc12)CN1CCN([C@@H]2c3ccccc3[C@@H]3[C@H](c4ccccc42)C3(F)F)CC1 [zosuquidar, zosuquidar hydrochloride]
- Rh123 intracellular fluorescence after pre-incubation with zosuquidar, cell lines overexpressing ABCB1 [1, 16]: increased to a level close to the level measured for HEKcontrol
- effect of the inhibitor on Rh123 fluorescence in the HEKcontrol batch used for haplotype functional characterization [1, 16]: small but significant effect
